Test results: publication PMC12641781, “Insights into Hepatic, Neuronal, and hERG Channel Safety of Plant-Derived Active Compounds” (Journal of Xenobiotics, 2025)
Values after ≈ are worked out from the molar mass of the structure shown. Where two headings read alike, the source gives them in different places.

Columns and labels:
HepG2 cells [1] = test: Hepatocellular viability assay (resazurin reduction); assay type: cell-based, Human; settings: for IC50: Homo sapiens, read-out: IC50, HepG2 cell viability
Description: HepG2 cells (1.5 × 10^4 cells per 100 µL) were seeded into black, clear-bottom 96-well plates and incubated at 37 °C with 5% CO2 for 24 h. The test compounds were prepared in complete media at final concentrations of 0.01, 0.1, 1, 10, and 100 μM and added to each well. For the negative control, 0.2% (v/v) DMSO was used to represent maximum viability, while 0.01% (v/v) Triton X-100 was used as the positive control for minimum viability. The plates were incubated at 37 °C under 5% CO2. After 20 h of incubation, 20% (v/v) CellTiter-Blue Cell Resazurin reagent was added to each well, followed by an additional 2–4 h of incubation. Fluorescence intensity, indicating resorufin levels, was measured at 590 nm using a Synergy H1 reader was obtained from Agilent Technologies (Santa Clara, CA, USA). Each data point was normalized based on the maximum and minimum cell viability data and expressed as % Relative viability using the following formula: % Relative viability=(Experimental data−Minimal viability data)/(Maximal viability data−Minimal viability data)×100

[2] = test system: Differentiated ReNcell VM cells; test: Neuronal viability assay, differentiated cells (resazurin); assay type: cell-based; settings: Homo sapiens, read-out: IC50, differentiated ReNcell VM cell viability
Description: ReNcell VM cells were seeded into Matrigel®-coated black, clear-bottom 96-well plates at a density of 3.0 × 10^4 cells per well for differentiation assays. The cells were maintained in ReNcell NSC Maintenance Medium (Merck Millipore, Burlington, MA, USA) without growth factors to induce differentiation. The culture medium was changed every two days for three weeks.
(§1) Differentiated ReNcell VM cells were seeded into Matrigel®-coated black, clear-bottom 96-well plates at densities of 3.0 × 10^4 per well. The ReNcell VM cells were incubated at 37 °C with 5% CO2 in the ReNcell Maintenance Media (Merck Millipore, MA, USA) without growth factor. The media was changed every two days for three weeks. Both cell types were treated with test compounds at 0.01, 0.1, 1, 10, and 100 μM. DMSO was used as the control for maximum cell viability, and Triton X-100 was the control for minimum viability. After 20 h of incubation at 37 °C with 5% CO2. Cell viability was assessed using the CellTiter-Blue® Cell Resazurin reagent.

CYP2E1 = test system: CYP2E1; set-up: method as in PMID 24146513; settings: in the Yahom Tultavai formulation; cited from earlier work
CYP1A2 = test system: CYP1A2; set-up: method as in PMID 24146513; settings: in the Yahom Tultavai formulation; cited from earlier work
CYP2D6 = test system: CYP2D6; set-up: method as in PMID 37553989; settings: EPMC as major active compound of the Dephrungsith formulation; cited from earlier work
CYP1A1 = test system: CYP1A1; set-up: method as in PMID 24146513; settings: in the Yahom Tultavai formulation; cited from earlier work
[3] = test system: Undifferentiated ReNcell VM cells; test: Neuronal viability assay, undifferentiated cells (resazurin); assay type: cell-based, human; settings: for IC50: 24 h, read-out: IC50, undifferentiated ReNcell VM cell viability; for Inhibition of undifferentiated ReNcell NSC viability: at concentrations up to 100 µM, compared to Triton X-100
Description: Undifferentiated ReNcell VM cells were seeded into Matrigel®-coated black, clear-bottom 96-well plates at densities of 1.5 × 10^4 per well. The cells were maintained in ReNcell NSC Maintenance Media (Merck Millipore, MA, USA), supplemented with 10% EGF and 1% penicillin/streptomycin, and were incubated at 37 °C with 5% CO2 for 24 h.
as §1

hERG = molecular target: T1, hERG (Homo sapiens, UniProt Q12809); test: hERG inhibition assay by automated patch-clamp electrophysiology in hERG-overexpressing HEK293 cells; assay type: cell-based
T1 construct: host or cells: HEK293 cells stably overexpressing hERG
Description: hERG channel inhibition assay was performed using patch-clamp electrophysiology. HEK293 cells stably overexpressing hERG channels (Eurofins Scientific, Luxembourg) were cultured in Dulbecco’s Modified Eagle Medium F-12 (GIBCO, Carlsbad, CA, USA) supplemented with 10% (v/v) fetal bovine serum (FBS) and 1% penicillin/streptomycin at 37 °C with 5% CO2 until reaching approximately 80% confluency. Cells were then subcultured using trypsin (HyClone, Marlborough, MA, USA), to enzymatically detach adherent HEK293 cells, centrifuged, and resuspended in the External standard buffer (Nanion Technologies, Munich, Germany).
A gigaohm seal was formed after cell seeding in the NPC-16 chip (Nanion Technologies) wells. Brief suction pulses were applied to achieve whole-cell configuration. The hERG channel activity was assessed using a voltage protocol consisting of steps to −80 mV, −40 mV, +40 mV, −40 mV, and back to −80 mV, triggering tail currents. Each well’s peak hERG tail current served as the baseline activity level. To evaluate the inhibitory effects of the six tested compounds, their stock solutions ([…]) were diluted with the external standard buffer to final concentrations of 100 µM, 10 µM, 1 µM, 0.1 µM, and 0.01 µM, and automatically applied to the wells. Subsequently, hERG channel activity was measured again using the same voltage protocol. The relative changes in hERG activity induced by the compounds were calculated and expressed as percentages using the following formula:% hERG activity = (Peak hERG tail current after compound treatment/Peak hERG tail current before compound treatment) × 100

[4] = dose of 10 g, healthy volunteers; cited from earlier work
[5] = set-up: method as in PMID 18039808; settings: oral 500 mg/kg dose in animals; cited from earlier work
[6] = single oral dose of rikkunshito (7.5 g/day), healthy Japanese subjects; cited from earlier work
HepG2 cells [7] = test system: HepG2 cells; set-up: method as in PMID 29348769, PMID 31388314, PMID 40952293; settings: cited from earlier work
[8] = test system: triple-negative breast cancer (TNBC) cells; set-up: method as in PMID 29348769, PMID 31388314, PMID 40952293; settings: cited from earlier work
[9] = AL single oral dose of 1000 mg/kg body weight (equivalent to 48.4 mg of ATD), healthy Thai subjects; cited from earlier work
[10] = rats, oral dose of 100 mg/kg body weight; read-out: plasma Cmax; cited from earlier work
[11] = differentiated ReNcell VM cells (three weeks without growth factor), 24 h, resazurin assay
[12] = Homo sapiens, ReNcell VM, undifferentiated ReNcell VM cells, resazurin assay, 0.01-100 μM
[13] = hERG-overexpressing HEK293 cells, peak tail current, automated patch clamp, read-out: IC50, hERG channel activity
[14] = HepG2 cells, 24 h, resazurin assay, 0.01-100 μM
[15] = Homo sapiens, undifferentiated ReNcell VM cells, resazurin assay, 0.01-100 μM

T1 sequence (Q12809 whole entry): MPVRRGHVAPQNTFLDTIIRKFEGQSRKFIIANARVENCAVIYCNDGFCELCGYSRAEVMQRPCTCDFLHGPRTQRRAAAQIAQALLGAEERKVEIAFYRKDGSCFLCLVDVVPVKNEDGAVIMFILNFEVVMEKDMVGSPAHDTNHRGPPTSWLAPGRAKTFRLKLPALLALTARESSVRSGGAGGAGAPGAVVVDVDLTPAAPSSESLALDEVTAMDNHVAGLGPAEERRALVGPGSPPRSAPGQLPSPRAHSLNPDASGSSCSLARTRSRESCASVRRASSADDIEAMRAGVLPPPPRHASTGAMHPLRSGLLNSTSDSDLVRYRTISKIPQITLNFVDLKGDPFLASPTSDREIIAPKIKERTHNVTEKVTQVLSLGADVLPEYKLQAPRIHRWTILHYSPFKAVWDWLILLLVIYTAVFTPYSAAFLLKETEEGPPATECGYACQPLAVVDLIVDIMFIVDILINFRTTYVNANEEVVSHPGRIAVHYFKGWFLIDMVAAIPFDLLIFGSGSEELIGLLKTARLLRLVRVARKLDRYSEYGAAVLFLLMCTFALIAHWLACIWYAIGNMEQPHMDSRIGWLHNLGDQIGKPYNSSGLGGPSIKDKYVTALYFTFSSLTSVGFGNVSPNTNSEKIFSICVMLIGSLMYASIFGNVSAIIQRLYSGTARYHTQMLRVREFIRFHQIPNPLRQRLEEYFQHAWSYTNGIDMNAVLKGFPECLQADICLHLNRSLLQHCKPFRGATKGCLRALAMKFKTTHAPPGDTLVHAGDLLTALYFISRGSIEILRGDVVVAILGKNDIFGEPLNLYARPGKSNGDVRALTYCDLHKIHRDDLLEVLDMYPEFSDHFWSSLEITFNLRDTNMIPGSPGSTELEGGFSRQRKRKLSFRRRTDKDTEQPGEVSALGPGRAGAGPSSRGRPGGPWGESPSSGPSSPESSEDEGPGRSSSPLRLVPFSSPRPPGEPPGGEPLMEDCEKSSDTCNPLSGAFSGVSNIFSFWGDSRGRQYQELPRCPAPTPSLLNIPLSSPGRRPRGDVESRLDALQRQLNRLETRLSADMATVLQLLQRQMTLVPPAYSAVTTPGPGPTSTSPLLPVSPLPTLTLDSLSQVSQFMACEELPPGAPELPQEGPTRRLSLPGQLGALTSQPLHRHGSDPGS

## triton X-100 [reference compound]
HepG2 cells [1]
  HepG2 cell viability compared to the 0.2% DMSO-treated group: significant decrease in cell viability

## CCOC(=O)/C=C/c1ccc(OC)cc1 [EPMC, ethyl-p-methoxycinnamate]
[2]; [11]
  IC50: > 100 µM
CYP2E1
  CYP2E1 inhibition in vivo: inhibits
CYP1A2
  CYP1A2 inhibition in vivo: inhibits
CYP2D6
  CYP2D6 inhibition in vitro: potently inhibits
CYP1A1
  CYP1A1 inhibition in vivo: inhibits
[3]; [12]
  IC50: > 100 µM
[3]
  Inhibition of undifferentiated ReNcell NSC viability: did not inhibit
hERG; [13]
  IC50: 53 µM
HepG2 cells [1]; HepG2, 24 h, HepG2 cells, 24 h, resazurin assay, 0.01-100 μM
  IC50: > 100 µM

## COc1cc(/C=C/C(=O)CC(=O)/C=C/c2ccc(O)c(OC)c2)ccc1O [CUR, Curcumin]
[4]
  plasma Cmax: 2300 ng/mL
[3]; [12]
  IC50: 21.1 µM
[3]; undifferentiated ReNcell VM cells, resazurin assay, 0.01-100 μM
  IC50: 21.2 µM
HepG2 cells [1]; [14]
  IC50: 21 µM

## CCC/C=C1\OC(=O)C2=C1CCC=C2 [LIG, ligustilide]
[5]
  plasma Cmax: 660 ng/mL
[2]; [11]
  IC50: > 100 µM
[3]; [15]
  IC50: > 100 µM
[3]
  Inhibition of undifferentiated ReNcell NSC viability: did not inhibit
hERG; [13]
  IC50: 37.3 µM
HepG2 cells [1]; [14]
  IC50: > 100 µM

## C=C1CCC[C@]2(C)CC[C@@H](C(C)(C)O)C[C@@H]12 [BEU, β-eudesmol]
[2]; [11]
  IC50: > 100 µM
[3]; [15]
  IC50: > 100 µM
[3]
  Inhibition of undifferentiated ReNcell NSC viability: did not inhibit
hERG; [13]
  IC50: 33.4 µM
HepG2 cells [1]; [14]
  IC50: > 100 µM

## C/C=C/C#CC#C/C=C/c1ccco1 [ATD, Atractylodin]
[2]; ReNcell VM
  IC50: > 100 µM
[6]
  maximal plasma concentration (Cmax): 0.002 to 20 ng/mL
HepG2 cells [7]
  IC50, inhibitory effects on HepG2 cells: 26.19 µg/mL (≈ 144 µM)
[8]
  IC50, triple-negative breast cancer (TNBC) cells: 92.11 µg/mL (≈ 505 µM)
[3]; Homo sapiens, ReNcell VM
  IC50: > 100 µM
[3]
  Inhibition of undifferentiated ReNcell NSC viability: did not inhibit
[9]
  maximal plasma concentration (Cmax): 50.35 (13.8–52.90) ng/mL
hERG
  IC50: 26.4 µM
hERG; human
  IC50: 22.4 µM
HepG2 cells [1]; HepG2, 24 h
  IC50: > 100 µM

## COc1c(O)cc2oc3cc(O)c(CC=C(C)C)c(O)c3c(=O)c2c1CC=C(C)C [αMG, α-mangostin]
[2]; [11]
  IC50: 6 µM
[10]
  Cmax: 1380 nM
hERG; [13]
  IC50: > 100 µM
